Results on four compounds are retold here after patent US8524899B2, “Alternative heterocycles for DNA recognition” (California Institute of Technology, priority 2003, dated 2013).

The assay concerns 5′-TGGXCA-3′ (X=A, T, G, C). As to the kind of experiment: DNase I footprint titration, single Hz/Py, Py/Hz, Hz/Bi, Bi/Hz pair position. It is filed as binding. The note with it: for preference for T•A over A•T: Hz/Py (G), Hz/Bi (I) pair; for preference for A•T over T•A: Py/Hz (J), Bi/Hz (L) pair. The procedure:
FIG. 15 is a table showing the association equilibrium constant Ka[M^−1] for polyamide oligomers G and J. The reported association constants are the average values obtained from three DNase I footprint titration experiments, with the standard deviation given in parenthesis. Assays were carried out at 22° C. at pH 7.0 in the presence of 10 mM Tris-HCl, 10 mM KCl, 10 mM MgCl2, and 5 mM CaCl2 at pH 7.0.
FIG. 19 is a a table showing the association equilibrium constant Ka[M^−1] for polyamide oligomers I and L. The reported association constants are the average values obtained from three DNase I footprint titration experiments, with the standard deviation given in parenthesis. Assays were carried out at 22° C. at pH 7.0 in the presence of 10 mM Tris-HCl, 10 mM KCl, 10 mM MgCl2, and 5 mM CaCl2 at pH 7.0.
For polyamides Im-Im-Hz-Py-γ-Im-Py-Py-Py-β-Dp (oligomer G) and Im-Im-Py-Py-γ-Im-Hz-Py-Py-β-Dp (oligomer J), the DNA-sequence specificity at a single ring-pairing position (bolded in the sequences listed above) was determined by varying a single DNA base pair within the parent-sequence context, 5′-TGGXCA-3′, to all four Watson-Crick base pairs (X=A, T, G, C) and comparing the relative affinities of the resulting complexes (FIG. 14). The variable base-pair position was installed opposite the novel Hz/Py and Py/Hz pairs, designed to target T•A and A•T respectively. Equilibrium association constants (Ka) for polyamide oligomers containing Py/Py, Hp/Py and Py/Hp pairs have been reported and are included for comparison with values presented here (FIG. 15).
The variable base-pair position was installed opposite the novel Hz/Bi and Bi/Hz pairs, designed to target T•A and A•T respectively.
Footprinting Experiments.—Plasmids pDHN1 and pDEH10 were constructed and 5′-radiolabeled as previously described. (Nguyen, D. H. et al., Bioorg. Med. Chem., 9: 7-17, 2001; Melander, C. et al., Chem. Eur. J., 24: 4487-4497, 2000.) DNase I footprint titrations were performed according to standard protocols. (Trauger, J. W. et al., Methods Enzymol., 340: 450-466, 2001.)

Consider `CN(C)CCCNC(=O)CCNC(=O)c1cc(NC(=O)c2cc(NC(=O)c3cc(NC(=O)c4nc(NC(=O)CCCNC(=O)c5cc(NC(=O)c6ccc7nc(-c8nc(NC(=O)c9nccn9C)cn8C)[nH]c7c6O)cn5C)cn4C)cn3C)cn2C)cn1C` [G], for which the “selectivity for A,T over G,C” value is listed as “more than 50 fold” and the “preference for T•A over A•T” value amounted to 10 fold.

Turning to `CN(C)CCCNC(=O)CCNC(=O)c1cc(NC(=O)c2cc(NC(=O)c3ccc4nc(-c5nc(NC(=O)CCCNC(=O)c6cc(NC(=O)c7ccc8nc(-c9nc(NC(=O)c%10nccn%10C)cn9C)[nH]c8c7O)cn6C)cn5C)[nH]c4c3)cn2C)cn1C` [I], the “selectivity for A,T over G,C” value was determined as 13 fold and the “preference for T•A over A•T” value is 2.5 fold.

Consider `CN(C)CCCNC(=O)CCNC(=O)c1cc(NC(=O)c2cc(NC(=O)c3ccc4nc(-c5nc(NC(=O)CCCNC(=O)c6cc(NC(=O)c7cc(NC(=O)c8nc(NC(=O)c9nccn9C)cn8C)cn7C)cn6C)cn5C)[nH]c4c3O)cn2C)cn1C` [J], for which the “selectivity for A,T over G,C” value was “more than 30 fold” and the “preference for A•T over T•A” value is “more than 4 fold”.

Consider `CN(C)CCCNC(=O)CCNC(=O)c1cc(NC(=O)c2cc(NC(=O)c3ccc4nc(-c5nc(NC(=O)CCCNC(=O)c6cc(NC(=O)c7ccc8nc(-c9nc(NC(=O)c%10nccn%10C)cn9C)[nH]c8c7)cn6C)cn5C)[nH]c4c3O)cn2C)cn1C` [L], for which the “selectivity for A,T over G,C” value is given as 4.5 fold and the “preference for A•T over T•A” value is listed as 2.5 fold. For the same compound, the “Ka (affinity)” value (5′-TGGXCA-3′, 22° C., pH 7.0) was “high affinity”.
